Test results as given in paper doi:10.1101/705327v1 (biorxiv, 2019).

Experiments:
Format in all cases: biochemical
recombinant mouse Acot13 [1] = biological target: T1, recombinant mouse Acot13 (Mus musculus, UniProt Q9CQR4); assay: thioesterase activity assay
T1 sequence (Q9CQR4 1-140): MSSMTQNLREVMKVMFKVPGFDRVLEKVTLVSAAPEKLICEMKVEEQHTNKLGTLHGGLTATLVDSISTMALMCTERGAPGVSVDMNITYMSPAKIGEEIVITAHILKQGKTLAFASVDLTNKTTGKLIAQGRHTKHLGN

recombinant mouse Acot13 [2] = biological target: T1, recombinant mouse Acot13; assay: thioesterase activity assay; settings: read-out: % inhibition at 10 mM
Acot2 = biological target: T2, Acot2 (Mus musculus, UniProt Q9QYR9); assay: thioesterase activity in liver mitochondria overexpressing Acot2; settings: read-out: % inhibition at 10 mM
T2 sequence (Q9QYR9 43-453): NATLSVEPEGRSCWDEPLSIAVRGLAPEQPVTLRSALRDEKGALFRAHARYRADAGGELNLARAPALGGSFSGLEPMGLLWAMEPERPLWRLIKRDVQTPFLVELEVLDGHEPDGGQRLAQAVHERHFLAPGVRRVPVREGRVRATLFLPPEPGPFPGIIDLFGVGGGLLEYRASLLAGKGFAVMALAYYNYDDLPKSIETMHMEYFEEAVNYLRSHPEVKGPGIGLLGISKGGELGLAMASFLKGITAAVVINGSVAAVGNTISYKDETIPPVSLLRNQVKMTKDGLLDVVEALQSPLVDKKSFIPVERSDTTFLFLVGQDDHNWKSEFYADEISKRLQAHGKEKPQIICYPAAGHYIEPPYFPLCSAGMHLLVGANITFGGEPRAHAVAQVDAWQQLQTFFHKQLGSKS

IC50 (recombinant mouse Acot13 [1]) [µM] | inhibition at 10000 µM (recombinant mouse Acot13 [2]) [%] | inhibition at 10000 µM (Acot2) [%] | SMILES
~35 | – | – | CC(C)(COP(=O)(O)OP(=O)(O)OC[C@H]1O[C@@H](n2cnc3c(N)ncnc32)[C@H](O)[C@@H]1OP(=O)(O)O)[C@@H](O)C(=O)NCCC(=O)NCCS [CoA]
– | ~20 | ~20 | Nc1ncnc2c1ncn2[C@@H]1O[C@H](COP(=O)(O)OP(=O)(O)OP(=O)(O)O)[C@@H](O)[C@H]1O [ATP]
– | ~20 | ~20 | Nc1ncnc2c1ncn2[C@@H]1O[C@H](COP(=O)(O)OP(=O)(O)O)[C@@H](O)[C@H]1O [ADP]
